Results as given in patent US9567345B2, “Pharmaceutically active pyrazolo-triazine derivatives” (LEAD DISCOVERY CENTER GMBH, priority 2012, dated 2017).

Assays:
Assay type in all cases: biochemical
CDK2/CycA = target: T1, CDK2/CycA (Homo sapiens, UniProt P24941); assay: CDK2 Enzymatic Activity Assay (Lance Kinase Activity Assay, FRET); conditions: Table 5B, class symbols per IC50 [nM] ranges of b581; read-out: CDK2: Selectivity of CDK7 inhibition over CDK2 inhibition
T1 construct: purchased Proqinase
How it was run: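 LANCE TR-FRET assay: CDK2/CycA phosphorylated ULight-MBP peptide in HEPES 50 mM pH 7.5 buffer with MgCl2, EGTA, DTT and Tween-20 for 1 h at room temperature. Eu-anti-phospho-MBP antibody with EDTA was then added for 1 h before reading. IC50 was fitted from 8-point, 1:3 sigmoidal dose-response curves.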

CDK7/CycH/Mat1 = CDK7/CycH/Mat1 (Homo sapiens, UniProt P50613); assay: CDK7 Enzymatic Activity Assay (Lance Kinase Activity Assay, FRET); conditions: CDK7/CycH/Mat1, 25 μM ATP final; class ranges; read-out: CDK7: IC50 [nM] for CDK7 inhibition
How it was run: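 Ulight-MBP peptide phosphorylation by CDK7/CycH/Mat1 in HEPES 50 mM pH 7.5, MgCl2, EGTA, DTT, Tween-20; 1 h at room temperature, then EDTA stop with Eu-anti-phospho-MBP antibody for 1 h and TR-FRET read. Compounds in 8-point 1:3 DMSO series; IC50 from sigmoidal dose-response fit.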

CDK9/Cyclin T1 = CDK9/Cyclin T1 (Homo sapiens, UniProt P50750); assay: CDK9 Enzymatic Activity Assay (Lance Kinase Activity Assay, FRET); conditions: Table 5B, class symbols per IC50 [nM] ranges of b581; read-out: CDK9: Selectivity of CDK7 inhibition over CDK9 inhibition
How it was run: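 CDK9/cyclin T1 phosphorylation of a ULight-MBP peptide was run for 1 h at room temperature in pH 7.5 HEPES buffer with MgCl2, EGTA, DTT and Tween-20. It was followed by 1 h with Eu-anti-phospho-MBP antibody (4 nM) in EDTA detection buffer. TR-FRET loss gave IC50 from 8-point, 1:3 sigmoidal dose-response curves.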

Sequence of CDK9/Cyclin T1 (P50750 whole entry): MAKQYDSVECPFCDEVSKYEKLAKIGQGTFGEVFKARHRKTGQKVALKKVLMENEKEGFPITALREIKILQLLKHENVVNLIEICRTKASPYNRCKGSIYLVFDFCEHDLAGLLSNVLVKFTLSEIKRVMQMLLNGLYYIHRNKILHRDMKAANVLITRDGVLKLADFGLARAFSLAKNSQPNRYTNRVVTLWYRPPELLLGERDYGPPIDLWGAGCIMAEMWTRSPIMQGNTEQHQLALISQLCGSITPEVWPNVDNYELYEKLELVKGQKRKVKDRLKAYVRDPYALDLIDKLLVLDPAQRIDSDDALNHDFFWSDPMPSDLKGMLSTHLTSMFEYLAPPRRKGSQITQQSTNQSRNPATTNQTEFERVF
Sequence of CDK9/Cyclin T1 (O60563 whole entry partner): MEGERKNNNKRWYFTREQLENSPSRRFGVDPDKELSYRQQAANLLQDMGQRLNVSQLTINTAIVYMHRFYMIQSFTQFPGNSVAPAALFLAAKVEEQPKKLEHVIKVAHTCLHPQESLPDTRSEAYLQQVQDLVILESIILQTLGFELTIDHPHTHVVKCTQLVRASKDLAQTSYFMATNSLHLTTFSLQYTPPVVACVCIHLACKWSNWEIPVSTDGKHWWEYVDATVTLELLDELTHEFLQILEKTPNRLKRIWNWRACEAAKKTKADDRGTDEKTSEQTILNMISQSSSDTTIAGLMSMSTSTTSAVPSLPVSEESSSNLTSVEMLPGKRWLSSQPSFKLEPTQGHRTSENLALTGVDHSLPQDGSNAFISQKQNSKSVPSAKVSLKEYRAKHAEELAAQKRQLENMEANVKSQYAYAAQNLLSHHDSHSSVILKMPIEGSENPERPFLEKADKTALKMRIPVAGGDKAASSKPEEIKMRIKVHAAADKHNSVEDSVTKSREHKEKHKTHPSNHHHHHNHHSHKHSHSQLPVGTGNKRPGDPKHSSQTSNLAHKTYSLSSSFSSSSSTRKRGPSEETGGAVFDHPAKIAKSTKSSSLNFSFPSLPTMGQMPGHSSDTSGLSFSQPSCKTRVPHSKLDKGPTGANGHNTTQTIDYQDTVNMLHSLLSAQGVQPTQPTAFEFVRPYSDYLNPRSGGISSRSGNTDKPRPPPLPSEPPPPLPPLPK
Sequence of CDK7/CycH/Mat1 (P50613 whole entry): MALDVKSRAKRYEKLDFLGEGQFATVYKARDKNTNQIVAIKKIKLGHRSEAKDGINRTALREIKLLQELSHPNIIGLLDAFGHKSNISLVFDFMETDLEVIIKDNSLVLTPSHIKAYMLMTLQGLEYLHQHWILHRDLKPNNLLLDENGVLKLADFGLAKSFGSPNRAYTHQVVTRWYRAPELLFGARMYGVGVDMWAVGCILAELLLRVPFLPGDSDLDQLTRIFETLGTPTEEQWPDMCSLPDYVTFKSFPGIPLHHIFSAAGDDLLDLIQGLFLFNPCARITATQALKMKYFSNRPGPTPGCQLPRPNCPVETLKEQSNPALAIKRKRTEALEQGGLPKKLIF

SMILES	IC50 (CDK2/CycA) [nM]	IC50 (CDK7/CycH/Mat1) [nM]	IC50 (CDK9/Cyclin T1) [nM]
CC(C)c1cnn2c(NCc3ccccc3-n3cccn3)nc(N3CC4CCNC4C3)nc12 (stereo not drawn) [(VIII-050), N-(2-(1H-pyrazol-1-yl)benzyl)-2-(hexahydropyrrolo[3,4-b]pyrrol-5(1H)-yl)-8-isopropylpyrazolo[1,5-a][1,3,5]triazin-4-amine]	> 2500	10 to 25	> 2500
CC(C)c1cnn2c(NCc3ccccc3-n3cccn3)nc(NCCN)nc12 [(VIII-051), N4-(2-(1H-pyrazol-1-yl)benzyl)-N2-(2-aminoethyl)-8-isopropylpyrazolo[1,5-a][1,3,5]triazine-2,4-diamine]	500 to 2500	5 to 10	> 2500
CC(C)c1cnn2c(NCc3ccccc3-n3cccn3)nc(NCC3CCNC3)nc12 (stereo not drawn) [(VIII-052), N4-(2-(1H-pyrazol-1-yl)benzyl)-8-isopropyl-N2-(pyrrolidin-3-ylmethyl)pyrazolo[1,5-a][1,3,5]triazine-2,4-diamine]	> 2500	> 25	> 2500
CC(C)c1cnn2c(NCc3ccccc3-n3cccn3)nc(N3CCCC(N)C3)nc12 (stereo not drawn) [(VIII-053), N-(2-(1H-pyrazol-1-yl)benzyl)-2-(3-aminopiperidin-1-yl)-8-isopropylpyrazolo[1,5-a][1,3,5]triazin-4-amine]	> 2500	> 25	> 2500
CC(C)c1cnn2c(NCc3ccccc3-n3cccn3)nc(N3CCC(N)C3)nc12 (stereo not drawn) [(VIII-054), N-(2-(1H-pyrazol-1-yl)benzyl)-2-(3-aminopyrrolidin-1-yl)-8-isopropylpyrazolo[1,5-a][1,3,5]triazin-4-amine]	> 2500	> 25	> 2500
COC(=O)C(CN)Nc1nc(NCc2ccccc2-n2cccn2)n2ncc(C(C)C)c2n1 (stereo not drawn) [(VIII-055), methyl 2-((4-((2-(1H-pyrazol-1-yl)benzyl)amino)-8-isopropylpyrazolo[1,5-a][1,3,5]triazin-2-yl)amino)-3-aminopropanoate]	> 2500	> 25	> 2500
CC(C)c1cnn2c(NCc3ccccc3-n3cccn3)nc([S+]([O-])C3CCNCC3)nc12 (stereo not drawn) [(X-1), N-(2-(1H-pyrazol-1-yl)benzyl)-8-isopropyl-2-(piperidin-4-ylsulfinyl)pyrazolo[1,5-a][1,3,5]triazin-4-amine]	50 to 500	< 5	500 to 2500
CC(C)c1cnn2c(NCc3ccccc3-c3cccs3)nc([S+]([O-])C3CCNCC3)nc12 (stereo not drawn) [(X-2), 8-isopropyl-2-(piperidin-4-ylsulfinyl)-N-(2-(thiophen-2-yl)benzyl)pyrazolo[1,5-a][1,3,5]triazin-4-amine]	50 to 500	< 5	50 to 500
CC(C)c1cnn2c(NCc3ccccc3-c3ccccc3)nc([S+]([O-])C3CCNCC3)nc12 (stereo not drawn) [(X-3), N-([1,1′-biphenyl]-2-ylmethyl)-8-isopropyl-2-(piperidin-4-ylsulfinyl)pyrazolo[1,5-a][1,3,5]triazin-4-amine]	500 to 2500	10 to 25	> 2500
CC(C)c1cnn2c(NCc3ccccc3-n3cncn3)nc([S+]([O-])C3CCNCC3)nc12 (stereo not drawn) [(X-4), N-(2-(1H-1,2,4-triazol-1-yl)benzyl)-8-isopropyl-2-(piperidin-4-ylsulfinyl)pyrazolo[1,5-a][1,3,5]triazin-4-amine]	50 to 500	< 5	500 to 2500
Cc1nccn1-c1ccccc1CNc1nc([S+]([O-])C2CCNCC2)nc2c(C(C)C)cnn12 (stereo not drawn) [(X-5), 8-isopropyl-N-(2-(2-methyl-1H-imidazol-1-yl)benzyl)-2-(piperidin-4-ylsulfinyl)pyrazolo[1,5-a][1,3,5]triazin-4-amine]	500 to 2500	< 5	> 2500
CC(C)c1cnn2c(NCc3ccccc3-n3cccn3)nc(S(=O)(=O)C3CCNCC3)nc12 [(X-7), N-(2-(1H-pyrazol-1-yl)benzyl)-8-isopropyl-2-(piperidin-4-ylsulfonyl)pyrazolo[1,5-a][1,3,5]triazin-4-amine]	> 2500	< 5	> 2500
CC(C)c1cnn2c(NCc3ccccc3-n3cccn3)nc(S[C@@H]3CCCNC3)nc12 [(X-8), (R)-N-(2-(1H-pyrazol-1-yl)benzyl)-8-isopropyl-2-(piperidin-3-ylthio)pyrazolo[1,5-a][1,3,5]triazin-4-amine]	50 to 500	< 5	> 2500
CC(C)c1cnn2c(NCc3ccccc3-n3cccn3)nc(SC3CCNCC3)nc12 [(X-9), N-(2-(1H-pyrazol-1-yl)benzyl)-8-isopropyl-2-(piperidin-4-ylthio)pyrazolo[1,5-a][1,3,5]triazin-4-amine]	> 2500	10 to 25	> 2500
CC(C)c1cnn2c(NCc3ccccc3-n3cccn3)nc(C(=O)NCC3CCNCC3)nc12 [(XII-1), 4-((2-(1H-pyrazol-1-yl)benzyl)amino)-8-isopropyl-N-(piperidin-4-ylmethyl)pyrazolo[1,5-a][1,3,5]triazine-2-carboxamide]	> 2500	< 5	> 2500
CC(C)c1cnn2c(NCc3ccccc3-n3cccn3)nc(C(=O)NCC3CNC3)nc12 [(XII-2), 4-((2-(1H-pyrazol-1-yl)benzyl)amino)-N-(azetidin-3-ylmethyl)-8-isopropylpyrazolo[1,5-a][1,3,5]triazine-2-carboxamide]	> 2500	< 5	> 2500
CC(C)c1cnn2c(NCc3ccccc3-n3cccn3)nc(C(=O)NCC3CCNC3)nc12 (stereo not drawn) [(XII-3), 4-((2-(1H-pyrazol-1-yl)benzyl)amino)-8-isopropyl-N-(pyrrolidin-3-ylmethyl)pyrazolo[1,5-a][1,3,5]triazine-2-carboxamide]	> 2500	< 5	> 2500
CC(C)c1cnn2c(NCc3ccccc3-n3cccn3)nc(C(=O)NCC3CCCNC3)nc12 (stereo not drawn) [(XII-4), 4-((2-(1H-pyrazol-1-yl)benzyl)amino)-8-isopropyl-N-(piperidin-3-ylmethyl)pyrazolo[1,5-a][1,3,5]triazine-2-carboxamide]	> 2500	< 5	> 2500
CC(C)c1cnn2c(NCc3ccccc3-n3cccn3)nc(C(=O)NCCCCN)nc12 [(XII-5), 4-((2-(1H-pyrazol-1-yl)benzyl)amino)-N-(4-aminobutyl)-8-isopropylpyrazolo[1,5-a][1,3,5]triazine-2-carboxamide]	> 2500	< 5	> 2500
CC(C)c1cnn2c(NCc3ccccc3-n3cccn3)nc(C(=O)N(C)CCN3CCOCC3)nc12 [(XII-06), 4-((2-(1H-pyrazol-1-yl)benzyl)amino)-8-isopropyl-N-methyl-N-(2-morpholinoethyl)pyrazolo[1,5-a][1,3,5]triazine-2-carboxamide]	500 to 2500	> 25	> 2500
CC(C)c1cnn2c(NCc3ccccc3-n3cccn3)nc(C(=O)N3CC4(CNC4)C3)nc12 [(XII-07), (4-((2-(1H-pyrazol-1-yl)benzyl)amino)-8-isopropylpyrazolo[1,5-a][1,3,5]triazin-2-yl)(2,6-diazaspiro[3.3]heptan-2-yl)methanone]	> 2500	> 25	> 2500
CC(C)c1cnn2c(NCc3ccccc3-n3cccn3)nc(C(=O)N(C)CCN3CCCC3)nc12 [(XII-8), 4-((2-(1H-pyrazol-1-yl)benzyl)amino)-8-isopropyl-N-methyl-N-(2-(pyrrolidin-1-yl)ethyl)pyrazolo[1,5-a][1,3,5]triazine-2-carboxamide]	> 2500	> 25	> 2500
CC(C)c1cnn2c(NCc3ccccc3-n3cccn3)nc(C(=O)N3CCNCC3)nc12 [(XII-9), (4-((2-(1H-pyrazol-1-yl)benzyl)amino)-8-isopropylpyrazolo[1,5-a][1,3,5]triazin-2-yl)(piperazin-1-yl)methanone]	> 2500	> 25	> 2500
CC(C)c1cnn2c(NCc3ccccc3-n3cccn3)nc(C(=O)NCCCN)nc12 [(XII-10), 4-((2-(1H-pyrazol-1-yl)benzyl)amino)-N-(3-aminopropyl)-8-isopropylpyrazolo[1,5-a][1,3,5]triazine-2-carboxamide]	> 2500	> 25	> 2500
CC(C)c1cnn2c(NCc3ccccc3-n3cccn3)nc(CNCCCN3CCOCC3)nc12 [(XXX-2), N-(2-(1H-pyrazol-1-yl)benzyl)-8-isopropyl-2-(((3-morpholinopropyl)amino)methyl)pyrazolo[1,5-a][1,3,5]triazin-4-amine]	> 2500	> 25	> 2500
CC(C)c1cnn2c(NCc3ccccc3-n3cccn3)nc(CN(C)CCN3CCCC3)nc12 [(XXX-3), N-(2-(1H-pyrazol-1-yl)benzyl)-8-isopropyl-2-((methyl(2-(pyrrolidin-1-yl)ethyl)amino)methyl)pyrazolo[1,5-a][1,3,5]triazin-4-amine]	> 2500	> 25	> 2500
